Source: patent US20020111274A1, “1-alkyl-3-[1-(substituted phenyl) benzotriazol-6-yl] uracils” (BASF Aktiengesellschaft, priority 2000, published 2002)

Legend:
Set-up in all cases: scale not given here
[1] = tested on: CASOB Sicklepod; test: Preemergence herbicidal evaluation, CASOB; format: in vivo, Cassia obtusifolia, L.; details: for CASOB herbicidal rating: preemergence; for Preemergence herbicidal rating, CASOB: rated four to five weeks after treatment
Method in brief: (§1)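 Visual ratings were taken four to five weeks after application. Before that, cups sown with seed in potting soil received a spray of compound dissolved in aqueous acetone, equivalent to about 0.013 to 0.800 kg/ha, and stood on greenhouse benches under conventional care.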

[2] = tested on: ABUTH Velvetleaf; test: Preemergence herbicidal evaluation, ABUTH; format: in vivo, Abutilon theophrasti, Medic.; details: for ABUTH herbicidal rating: preemergence
Method in brief: as §1

[3] = tested on: TRZAWR Wheat, Winter, cv Riband; test: Preemergence herbicidal evaluation, TRZAWR; format: in vivo, Triticum aestivum; details: for TRZAWR herbicidal rating: preemergence; for Preemergence herbicidal rating, TRZAWR: rated four to five weeks after treatment
Method in brief: as §1

[4] = tested on: CHEAL Lambsquarters, Common; test: Postemergence herbicidal evaluation, CHEAL; format: in vivo, Chenopodium album, L.
Method in brief: (§2)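 Plants are raised for roughly two weeks, then treated postemergence with compound dispersed in acetone/water (80/20) plus 1.0% seed oil adjuvant, at rates of about 0.006 kg to 0.400 kg per hectare. After greenhouse care, damage is scored two to three weeks later.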

[5] = tested on: GALAP Galium; test: Postemergence herbicidal evaluation, GALAP; format: in vivo, Galium aparine
Method in brief: as §2

[6] = tested on: SETVI Foxtail, Green; test: Postemergence herbicidal evaluation, SETVI; format: in vivo, Setaria viridis, (L.) Beau
Method in brief: as §2

[7] = tested on: IPOHE Morningglory, Ivyleaf; test: Postemergence herbicidal evaluation, IPOHE; format: in vivo, Ipomoea hederacea, (L.) Jacq.
Method in brief: as §2

[8] = tested on: SETVI Foxtail, Green; test: Preemergence herbicidal evaluation, SETVI; format: in vivo, Setaria viridis, (L.) Beau; details: for SETVI herbicidal rating: preemergence; for Preemergence herbicidal rating, SETVI: rated four to five weeks after treatment
Method in brief: as §1

[9] = tested on: ECHOG Barnyardgrass; test: Preemergence herbicidal evaluation, ECHOG; format: in vivo, Echinochloa crus-galli, (L.) Beau; details: for ECHCG herbicidal rating: preemergence; for Preemergence herbicidal rating, ECHCG: rated four to five weeks after treatment
Method in brief: as §1

[10] = tested on: CASOB Sicklepod; test: Postemergence herbicidal evaluation, CASOB; format: in vivo, Cassia obtusifolia, L.
Method in brief: as §2

[11] = tested on: ZEAMX Corn, Field; test: Postemergence herbicidal evaluation, ZEAMX; format: in vivo, Zea mays, L. (Sammel-Bezeichnung)
Method in brief: as §2

[12] = tested on: ORYSAT Rice, Tebonnet; test: Preemergence herbicidal evaluation, ORYSAT; format: in vivo, Oryza sativa, (L.); details: for ORYSAT herbicidal rating: preemergence; for Preemergence herbicidal rating, ORYSAT: rated four to five weeks after treatment
Method in brief: as §1

[13] = 0.016 kg/ha, postemergence spray, rated about two-three weeks after treatment
[14] = 0.032 kg/ha, postemergence spray, rated about two-three weeks after treatment
[15] = 0.062 kg/ha, postemergence spray, rated about two-three weeks after treatment
[16] = rate 0.008 kg/ha, rated two - three weeks after treatment

Cn1c(C(F)(F)F)cc(=O)n(-c2cc3c(cc2F)nnn3-c2ccc(OCC(=O)O)cc2)c1=O [Example 44]
CASOB herbicidal rating ([1]; rate 0.062 kg/ha): 2.0 | CASOB herbicidal rating ([1]; rate 0.125 kg/ha): 0.0 | Preemergence herbicidal rating, CASOB ([1]; rate 0.016 kg/ha): 0.0 | Preemergence herbicidal rating, CASOB ([1]; rate 0.032 kg/ha): 1.0 | ABUTH herbicidal rating ([2]; rate 0.062 kg/ha): 7.0 | ABUTH herbicidal rating ([2]; rate 0.125 kg/ha): 9.0 | Preemergence herbicidal rating, ABUTH ([2]; rate 0.032 kg/ha, rated four to five weeks after treatment): 0.0 | TRZAWR herbicidal rating ([3]; rate 0.062 kg/ha): 1.0 | TRZAWR herbicidal rating ([3]; rate 0.125 kg/ha): 1.0 | Preemergence herbicidal rating, TRZAWR ([3]; rate 0.016 kg/ha): 0.0 | Preemergence herbicidal rating, TRZAWR ([3]; rate 0.032 kg/ha): 0.0 | Postemergence herbicidal rating CHEAL [4, 13]: 7.0 | Postemergence herbicidal rating CHEAL [4, 14]: 6.0 | Postemergence herbicidal rating CHEAL [4, 15]: 9.0 | Postemergence herbicidal rating CHEAL [4, 16]: 5.0 | Postemergence herbicidal rating GALAP [5, 13]: 0.0 | Postemergence herbicidal rating GALAP [5, 14]: 1.0 | Postemergence herbicidal rating GALAP [5, 15]: 2.0 | Postemergence herbicidal rating GALAP [5, 16]: 0.0 | Postemergence herbicidal rating SETVI [6, 13]: 4.0 | Postemergence herbicidal rating SETVI [6, 14]: 7.0 | Postemergence herbicidal rating SETVI [6, 15]: 7.0 | Postemergence herbicidal rating SETVI [6, 16]: 4.0 | Postemergence herbicidal rating IPOHE [7, 13]: 7.0 | Postemergence herbicidal rating IPOHE [7, 14]: 9.0 | Postemergence herbicidal rating IPOHE [7, 15]: 9.0 | Postemergence herbicidal rating IPOHE [7, 16]: 7.0 | SETVI herbicidal rating ([8]; rate 0.062 kg/ha): 3.0 | SETVI herbicidal rating ([8]; rate 0.125 kg/ha): 9.0 | Preemergence herbicidal rating, SETVI ([8]; rate 0.016 kg/ha): 0.0 | Preemergence herbicidal rating, SETVI ([8]; rate 0.032 kg/ha): 0.0 | ECHCG herbicidal rating ([9]; rate 0.062 kg/ha): 0.0 | ECHCG herbicidal rating ([9]; rate 0.125 kg/ha): 0.0 | Preemergence herbicidal rating, ECHCG ([9]; rate 0.016 kg/ha): 0.0 | Preemergence herbicidal rating, ECHCG ([9]; rate 0.032 kg/ha): 0.0 | Postemergence herbicidal rating CASOB [10, 13]: 0.0 | Postemergence herbicidal rating CASOB [10, 14]: 1.0 | Postemergence herbicidal rating CASOB [10, 15]: 2.0 | Postemergence herbicidal rating CASOB [10, 16]: 0.0 | Postemergence herbicidal rating ZEAMX [11, 13]: 6.5 | Postemergence herbicidal rating ZEAMX [11, 14]: 6.5 | Postemergence herbicidal rating ZEAMX [11, 15]: 7.0 | Postemergence herbicidal rating ZEAMX [11, 16]: 4.5 | ORYSAT herbicidal rating ([12]; rate 0.062 kg/ha): 5.0 | ORYSAT herbicidal rating ([12]; rate 0.125 kg/ha): 5.0 | Preemergence herbicidal rating, ORYSAT ([12]; rate 0.016 kg/ha): 0.0 | Preemergence herbicidal rating, ORYSAT ([12]; rate 0.032 kg/ha): 0.0
